# Experimental data as given in patent US9820943B2, “Micronized amoxicillin” (DSM SINOCHEM PHARMACEUTICALS NETHERLANDS B.V., priority 2013, dated 2017).
# Assay: Powder dissolution, visual determination of clarity in drinking water
# Format: physicochemical
# Conditions: 3.0 g in 1000 mL drinking water, stirred 2 min at 300±10 rpm, 30±1° C.; trihydrate
# Experimental: Non-micronized amoxicillin trihydrate (3.0 g) was added to a 2 L beaker and drinking water (1000 mL) was added. The mixture was stirred for 2 min at 300±10 rpm at 30±1° C. After two minutes the stirrer was stopped. The same procedure was applied to a sample of micronized amoxicillin trihydrate. Both mixtures were visually observed.
row,Visual appearance of the mixture (clarity),SMILES
1,cloudy,"CC1(C)S[C@@H]2[C@H](NC(=O)[C@H](N)c3ccc(O)cc3)C(=O)N2[C@H]1C(=O)O [Non-micronized amoxicillin trihydrate, amoxicillin trihydrate]"
2,clear,"CC1(C)S[C@@H]2[C@H](NC(=O)[C@H](N)c3ccc(O)cc3)C(=O)N2[C@H]1C(=O)O [micronized amoxicillin trihydrate, amoxicillin trihydrate]"
